Measured values taken from ChEMBL document CHEMBL1154948, “Carbonic anhydrase inhibitors. Inhibition of transmembrane isoforms IX, XII, and XIV with less investigated anions including trithiocarbonate and dithiocarbamate” (Bioorg Med Chem Lett, 2010).

Columns and labels:
[1] = target: Carbonic anhydrase 14 (Homo sapiens) (UniProt Q9ULX7)
Description: Inhibition of human recombinant CA14 by stopped flow CO2 hydration assay

[2] = target: Carbonic anhydrase 9 (Homo sapiens) (UniProt Q16790); assay: Inhibition of human recombinant CA9 by stopped flow CO2 hydration assay
[3] = target: Carbonic anhydrase 12 (Homo sapiens) (UniProt O43570)
Chain of Carbonic anhydrase 12 (Homo sapiens) (O43570 whole entry): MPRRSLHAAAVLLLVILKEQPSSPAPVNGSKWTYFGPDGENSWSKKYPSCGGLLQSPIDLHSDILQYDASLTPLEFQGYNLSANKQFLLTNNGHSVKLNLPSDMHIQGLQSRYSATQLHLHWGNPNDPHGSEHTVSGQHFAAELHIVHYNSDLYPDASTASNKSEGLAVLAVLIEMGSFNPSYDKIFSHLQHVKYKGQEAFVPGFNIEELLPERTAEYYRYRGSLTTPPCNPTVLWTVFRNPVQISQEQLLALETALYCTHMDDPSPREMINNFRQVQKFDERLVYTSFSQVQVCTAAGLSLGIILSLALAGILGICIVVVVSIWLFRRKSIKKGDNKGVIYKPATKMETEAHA

Chain of Carbonic anhydrase 14 (Homo sapiens) (Q9ULX7 whole entry): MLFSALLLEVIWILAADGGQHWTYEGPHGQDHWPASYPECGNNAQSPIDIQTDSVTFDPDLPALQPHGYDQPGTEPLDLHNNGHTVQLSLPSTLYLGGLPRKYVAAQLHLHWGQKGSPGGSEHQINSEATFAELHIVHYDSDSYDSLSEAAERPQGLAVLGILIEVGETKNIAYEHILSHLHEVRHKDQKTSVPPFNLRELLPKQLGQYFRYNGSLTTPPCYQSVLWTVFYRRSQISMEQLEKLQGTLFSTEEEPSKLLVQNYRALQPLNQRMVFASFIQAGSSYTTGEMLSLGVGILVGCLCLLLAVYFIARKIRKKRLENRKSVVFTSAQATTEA

O=P(O)(O)OP(=O)(O)O was tested, and the Kinact [1] was 0.76 mM, the Kinact [2] was 46.3 mM and the Kinact [3] was 63.9 mM.

In the case of SODIUM STANNATE, the Kinact [3] is reported as 1.02 mM.

In the case of SODIUM DIOXIDOTRIOXOOSMIUM, the Kinact [1] is reported as 72.5 mM, the Kinact [2] is reported as 184 mM and the Kinact [3] is reported as 130 mM.

O=[Se](=O)(O)O gave a Kinact [1] of 49.6 mM, a Kinact [2] of 183 mM and a Kinact [3] of 138 mM.

With CCN(CC)C(=S)S the Kinact [1] was 0.001 mM, the Kinact [2] was 0.0014 mM and the Kinact [3] was 0.0011 mM.
